Assay results from patent US6417174B1, “Inhibitors of β-lactamases and uses therefor” (Northwestern University, priority 1997, dated 2002).
Where two headings read alike, the source gives them in different places.

Columns and labels:
[1] = target: T1, TEM-1 β-lactamase from E. coli (Escherichia coli, UniProt P62593); test: Inhibition of TEM-1 β-lactamase, spectrophotometric assay (FAP substrate); type: biochemical
T1 construct: gift: Natalie Strynadka, University of Alberta

[2] = target: AmpC β-lactamase from E. coli (Escherichia coli, UniProt P00811); test: biochemical; type: biochemical
[3] = system: β-lactamase derepressed strain of Enterobacter cloacae (Ent-Der); test: microbe, parasite or virus in culture; type: cell-based; as to MIC of ceftazidime plus inhibitor: values in µg/ml
Method: (§1) After incubation, the growth of the cells was visually inspected. The minimum inhibitory concentration (MIC) is the lowest concentration where there no cell growth was observed.
(§2) The following strains were used: Enterobacter cloacae cell line with derepressed β-lactamase production (Ent-Der), and Escherichia coli RYC1000 (araD139 D lacU169 rpsL D rib7 thiA gyrA recA56) cell lines, harboring the plasmid pBGS19 (with no β-lactamase), or the β-lactamase containing plasmids pBGAmpC (AmpC β-lactamase from E. coli; Eco-AmpC), or pBGAmpC-MHN (AmpC β-lactamase from Enterobacter cloacae; Eco-AmpCEnt). […] TEM-10 and TEM-24 differ from TEM-1 due to the following point substitutions: TEM-10 (R164S, E240K); TEM-24 (L102K, L162S, S235T, A237K). TEM-10 and TEM-24 also differ from TEM-1 in being extended spectrum enzymes (i.e., they react with a greater range of substrates than TEM-1). Also tested were clinical isolates of Pseudomonas aeruginosa. All bacterial strains and plasmids are available from Jesus Blazquez and Fernando Baquero, Servicio de Microbiologia, Hospital Ramon y Cajal, National Institute of Health, Madrid, Spain.
(§3) Several ratios, including 1:1, 2:1, 4:1, and 1:3, of β-lactam antibiotic (amoxicillin (AX) or ceftazidime (CAZ)) to boronic acid compound were used in the assays. Tazobactam (TAZO), a clinically used β-lactamase inibitor, was used as a positive control.

[4] = system: E. coli RYC1000 harboring plasmid pBGS19 (no β-lactamase); test: microbe, parasite or virus in culture; type: cell-based, Escherichia coli; details: pBGS19
Method: as §1, §2, §3

[5] = system: E. coli RYC1000 harboring plasmid pBGTEM-24 (TEM-24 β-lactamase); test: microbe, parasite or virus in culture; type: cell-based, Escherichia coli; as to MIC of ceftazidime plus inhibitor: values in µg/ml
Method: as §1, §2, §3

[6] = system: E. coli RYC1000 harboring plasmid pBGAmpC-MHN (AmpC β-lactamase of Enterobacter cloacae); test: microbe, parasite or virus in culture; type: cell-based, Escherichia coli; as to MIC of ceftazidime plus inhibitor: values in µg/ml
Method: as §1, §2, §3

[7] = system: E. coli RYC1000 harboring pBGAmpC-E. coli producing AmpC (ECR-AmpCEc); test: microbe, parasite or virus in culture; type: cell-based, Escherichia coli; details: Escherichia coli, read-out: MIC of amoxicillin (AX)
Method: as §1, §2, §3

[8] = system: E. coli RYC1000 harboring a plasmid coding for a mutant of AmpC from Enterobacter (ECR-AmpCEnM); test: microbe, parasite or virus in culture; type: cell-based, Escherichia coli; details: Enterobacter, read-out: MIC of amoxicillin (AX)
Method: as §1, §2, §3

[9] = system: E. coli RYC1000 harboring pBGTEM-10 producing TEM-10 β-lactamase (EC-T10); test: microbe, parasite or virus in culture; type: cell-based, Escherichia coli; details: Escherichia coli, read-out: MIC of amoxicillin (AX)
Method: as §1, §2, §3

[10] = system: E. coli RYC1000 harboring pBGTEM-1 producing TEM-1 β-lactamase (EC-T1); test: microbe, parasite or virus in culture; type: cell-based, Escherichia coli; details: Escherichia coli, read-out: MIC of amoxicillin (AX)
Method: as §1, §2, §3

[11] = Tables 2A/2B, pH 7.0, 25° C., 100 μM FAP, N.I. = no inhibition observed at an inhibitor concentration of 100 μM, read-out: Ki E. coli TEM-1
[12] = Tables 2A/2B, pH 7.0, 25° C., 100 μM cephalothin, read-out: Ki E. coli AmpC
[13] = Table 5, as described in Example 2, read-out: Ki AmpC
[14] = pH 7, read-out: Ki E. coli AmpC
[15] = Enterobacter cloacae, read-out: MIC of amoxicillin (AX)

Chain of AmpC β-lactamase from E. coli (P00811 20-377): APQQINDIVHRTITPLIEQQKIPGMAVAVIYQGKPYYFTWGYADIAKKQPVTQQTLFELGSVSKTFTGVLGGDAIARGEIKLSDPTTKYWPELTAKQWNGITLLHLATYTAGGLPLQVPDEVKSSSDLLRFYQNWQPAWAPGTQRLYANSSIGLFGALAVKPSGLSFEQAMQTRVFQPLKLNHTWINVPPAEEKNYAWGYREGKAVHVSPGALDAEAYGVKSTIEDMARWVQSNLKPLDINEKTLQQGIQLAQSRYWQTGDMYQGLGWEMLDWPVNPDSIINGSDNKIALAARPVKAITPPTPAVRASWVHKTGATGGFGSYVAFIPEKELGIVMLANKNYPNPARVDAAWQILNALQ
T1 sequence (P62593 24-286 limits assumed): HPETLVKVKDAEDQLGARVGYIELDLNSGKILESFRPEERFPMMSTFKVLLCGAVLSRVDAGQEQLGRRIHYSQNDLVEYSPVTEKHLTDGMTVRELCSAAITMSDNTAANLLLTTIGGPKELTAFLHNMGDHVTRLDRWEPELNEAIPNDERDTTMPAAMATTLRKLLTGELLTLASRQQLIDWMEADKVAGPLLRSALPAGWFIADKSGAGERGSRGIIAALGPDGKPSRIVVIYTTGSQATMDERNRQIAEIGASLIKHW

## O=Cc1ccccc1B(O)O [2FORMB, 2-formylphenylboronate, reference compound]
[1]; [11]
  Ki: > 100 µM
[2]; [12]
  Ki: 62 µM

## OB(O)c1ccc(Br)cc1 [4BPB, 4-bromophenylboronic acid]
[1]
  Ki: 31.3 µM
[2]; Ki E. coli AmpC
  Ki: 2.6 µM

## OB(c1ccccc1)c1ccccc1 [DFB, diphenylboronic acid]
[1]; [11]
  Ki: > 100 µM
[2]
  inhibition of AmpC (in words): lacks measurable inhibition
[2]; [12]
  Ki: > 500 µM

## OB(O)c1ccc(Cl)s1 [5CLTH2B, 5-chlorothiophene-2-boronic acid]
[3]; Table 3A, Ent. Der., proportion 4/1, given as CAZ/inhibitor
  MIC of ceftazidime plus inhibitor: 32/8
[3]; Table 3B, Ent. Der.
  MIC of inhibitor used alone without ceftazidime: 128 µg/mL
[1]
  Ki: 17 µM
[4]; Table 3A, proportion 4/1
  MIC of ceftazidime plus inhibitor: <0.25 µg/mL
[4]; Table 3B
  MIC of inhibitor used alone without ceftazidime: 128 µg/mL
[5]; Table 3A, proportion 4/1, given as CAZ/inhibitor
  MIC of ceftazidime plus inhibitor: 128/32
[5]; Table 3B
  MIC of inhibitor used alone without ceftazidime: 128 µg/mL
[6]; Table 3A, AmpC-MHN, proportion 4/1, given as CAZ/inhibitor
  MIC of ceftazidime plus inhibitor: 4/1
[6]; Table 3B, AmpC-MHN
  MIC of inhibitor used alone without ceftazidime: 128 µg/mL
[2]; [12]
  Ki: 1.4 µM

## OB(O)c1cccc2ccccc12 [NAPB]
[1]; [11]
  Ki: 34 µM
[2]; [12]
  Ki: 10.4 µM
[2]; compared with MAPB
  dissociation constant relative to MAPB (AmpC): two to three-fold worse (higher)

## O=C(O)/C=C/c1cccc(B(O)O)c1
[2]; [13]
  Ki: 5.9 ± 0.3 µM

## OB(O)c1ccccc1 [2FDB, phenylboronic acid, reference compound]
[1]
  Ki: > 100 µM
[2]; [12]
  Ki: 8 µM

## OB(O)c1cccc(C(F)(F)F)c1 [3TFMB]
[1]; [11]
  Ki: 85 µM
[2]
  Ki values (AmpC), range in words: one to two
[2]; [14]
  Ki: 1.6 µM

## O=C1OC(=O)c2ccccc2/C1=N/Nc1cccc(B(O)O)c1
[2]; [13]
  Ki: 0.075 µM

## O=C(O)/C=C/c1ccc(B(O)O)cc1
[2]; [13]
  Ki: 4.2 ± 1.1 µM

## CC(=O)c1ccc(B(O)O)s1 [5ACTH2B, 5-acetylthiophene-2-boronic acid]
[1]
  Ki: > 50 µM
[2]; [12]
  Ki: 1.8 µM

## OB(O)c1ccc(C(F)(F)F)cc1 [4TFMB]
[1]; [11]
  Ki: 6.3 µM
[2]; [14]
  Ki: 9 µM

## OB(O)c1csc2ccccc12
[2]; read-out: Ki AmpC
  Ki: 0.78 ± 0.08 µM

## CCCCB(O)O [BUTB, Butylboronic acid]
[1]
  Ki: > 100 µM
[2]; [12]
  Ki: > 500 µM

## Cc1ccc(B(O)O)cc1 [4MEPB, 4-methylphenylboronate, reference compound]
[1]; [11]
  Ki: > 100 µM
[2]; [14]
  Ki: 5.2 µM

## CC1(C)S[C@@H]2[C@H](NC(=O)[C@H](N)c3ccc(O)cc3)C(=O)N2[C@H]1C(=O)O [AX, amoxicillin, reference compound]
[3]; [15]
  MIC: > 2050 µg/mL
[6]; [15]
  MIC: > 2050 µg/mL
[7]
  MIC: > 2050 µg/mL
[8]
  MIC: > 2050 µg/mL
[9]
  MIC: > 2050 µg/mL
[10]
  MIC: > 2050 µg/mL
